The text below walks through data of article PMC10906223 (JCI Insight, 2024).

Values joined by “and” are separate entries in the source; they are usually repeats but may differ in a detail not shown here. Equal values may be shown once.

The test system of test [1] is dispersed islet cells of donors with T1D. Nature of the test: Insulin secretion from dispersed islet cells of donors with T1D.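 On Secretion of insulin: insulin concentration in collected medium by Lumit immunoassay.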 It is filed as cell-based, human. The note with it: for Secretion of insulin: dispersed islet cells, T1D donors, one value per donor, Figure 2J. As for the experimental part: Pancreata of nondiabetic C57BL/6J mice were digested using collagenase P (Roche Diagnostics, catalog 11213873001), and islets were manually picked up using a stereomicroscope (ZEISS Stemi 305). […] Isolated mouse islets or provided human islets were dispersed as described ([28]). Briefly, 100–120 islets were washed 2 times using modified HBSS, then dispersed in 600 μL Accutase (Innovative Cell Technologies, catalog AT-104) by gently pipetting up and down for 7 minutes at 37°C. […] Following refreshing of KRBH, cells were dispensed in 8 microfuge tubes (2,000 cells/tube) and treated with WCDD301, preclustered Ephrin-A5 Fc, or preclustered Fc in the presence or absence of the competitive inhibitor of EphA4 receptor, rhyncophylline ([60]) (MilliporeSigma, catalog SML2345). In the presence or absence of these effectors, secretion assay was performed sequentially as shown in Supplemental Table 5. […] Preclustering of Ephrin-A5 Fc was done by mixing Ephrin-A5 Fc or Fc alone (BioLegend, catalog 790102) with anti-Fc antibody (Invitrogen, catalog A16086) (1:10 molar ratio) 20 minutes before treatment ([62]). […] Shedding of cleaved EphA4 was measured from the cell culture medium. Experiments were performed by dispersion of 200 islets, and EphA4 levels in media were measured by EphA4 ELISA (ABclonal, catalog RK06572).
The Integrated Islet Distribution Program provided us human donor islets with their characteristics (Supplemental Table 6). Islets were centrifuged at 500g for 3 minutes, resuspended in CMRL 1066 medium (Gibco, catalog 1150-037) containing 11 mM glucose, and rested in an incubator overnight.
For the hormone secretion assay, islets or dispersed islet cells were adapted in KRBH buffer containing 11 mM glucose for 1 hour. Then, after 2 washes in HBSS containing 11 mM glucose, islets or cells were treated in the following sequential order in the presence or absence of WCDD301: incubation in KRBH (1 mM glucose, 30 minutes) followed by medium collection, incubation in KRBH (11 mM glucose, 30 minutes) followed by medium collection.

For test [2], the system named is diabetic NOD mice. As to the kind of experiment: Insulin tolerance test in NOD mice. It is filed as in vivo, mouse. The note with it: WCDD301 dosing. The text has this: Following a 4-hour fast, nondiabetic placebo-treated (n = 4), diabetic placebo-treated (n = 4), and diabetic WCDD301-treated (n = 4) NOD female mice were intraperitoneally injected with insulin (Humulin-R; 0.75 U/kg, Eli Lilly and Company). […]

Test [3] deals with STZ-induced diabetic mice. Nature of the test: Blood glucose in STZ-induced diabetic mice, once-daily oral WCDD301. Also noted: Blood glucose: unit: mg/dL. The format is in vivo, mouse. As to conditions: for Blood glucose: WCDD301 10 mg/kg oral once daily, 10 mg/kg. As for the experimental part: Six cohorts of C57BL/6 mice (n = 10 each, equal numbers of females and males; the Jackson Laboratory) were fasted for 5 hours and injected intraperitoneally with 40 mg/kg STZ solution (MilliporeSigma, catalog 572201) for 5 consecutive days. STZ solution (40 mg/mL) was prepared within 5 minutes before injection using freshly prepared citrate buffer (0.1 M, pH 4.5). Nine days after the last injection, blood glucose levels were measured for 2 consecutive days, and those animals with constant values of 300 ± 20 mg/dL were considered as having early severe hyperglycemia.
We prepared sustained time-release pearls for oral administration in the mouse models. To this end, we combined FDA-approved excipients of Eastman BioSustane SAIB NF (product code: 41271-00, sample distribution from Eastman Company, Kingsport, Tennessee, USA; provided by Phillip Cook) and Agar (Lamda Biotech, catalog C110) at the ratio of 1:1.45 (w/w). We also prepared another type of sustained time-release pearl by mixing SAIB, Agar, and L (-) malic acid (MilliporeSigma, catalog 202-601-5) at the ratio of 1:1.4:0.2 (w/w/w). A homogenous paste mixture was prepared, and pearls were formed with 50–60 mg weight and approximately 2 mm diameter by pinching off the mixture and manually rolling.
We preweighed WCDD301 into microfuge tubes and reconstituted it using deionized water. Using a 10 μL pipette tip, we placed the calculated dose of WCDD301 (at the volume range of 1–1.5 μL) within the center of pearls. WCDD301 was placed into pearls 30–45 minutes before administration. For oral administration of pearls, we designed an applicator using a disposable plastic transfer pipette and syringe plunger lubricated with olive oil. Food intake and body weight in each experimental group (diabetic WCDD301-treated, diabetic placebo-treated, and nondiabetic placebo-treated NOD mice) were monitored daily for 4 weeks. Urine glucose was measured from individually caged NOD mice (nondiabetic placebo treated n = 2, diabetic placebo treated n = 2, and diabetic WCDD301 treated n = 4, 21–23 weeks old) with metabolic cages. Urine glucose was monitored every 24 hours for 10 days by semiquantitative measurements (P-STICKS, Millpledge Veterinary).
We applied the following therapeutic regimens in the fed state for oral dosing of pearls containing WCDD301. The therapeutic regimen for diabetic NOD mice with moderate hyperglycemia (n = 6–9; 6 females/3 males) or nondiabetic ones with blood glucose levels of < 140 mg/dL (females, n = 5) was dose 7.5 mg/kg, dosage once a day, and excipient SAIB-Agar, 50–60 mg. The therapeutic regimen for STZ-induced diabetic mice with early severe hyperglycemia (n = 3, placebo group; n = 4 treatment group, females) was dose 10 mg/kg, dosage once a day, and excipient SAIB-Agar-malic acid, 50–60 mg.

Turning to `CC(=O)OCC(N)(COC(C)=O)COC(C)=O` [WCDD301, 2-(acetoxymethyl)-2-aminopropane-1,3-diyl diacetate], in test [1] (dispersed islet cells from donors with long-standing T1D), the “Effect on insulin secretion” value is listed as “no effect on the minimal residual insulin secretion”. Moreover, the Secretion of insulin in test [1] (1 mM glucose) was 0.0567 and 0.08; in test [1] (11 mM glucose) it was 0.07 and 0.05. Moreover, the “Blood glucose in insulin tolerance test, Normalize with basal (0 min) (Figure 6E)” value in test [2] (15 min) was 0.89 and 0.91 and 0.86 and 0.88; in test [2] (30 min), 0.67 and 0.69 and 0.65 and 0.68; in test [2] (45 min) it was 0.67 and 0.74 and 0.62 and 0.66; in test [2] (60 min), 0.71 and 0.73 and 0.77 and 0.72; in test [2] (90 min) it was 0.7 and 0.8 and 0.75 and 0.96; in test [2] (120 min), 0.89 and 0.85 and 0.9 and 0.93. Besides, the Effect on hyperglycemia entry in test [3] (4-week dosing) is “normalized hyperglycemia”. The Blood glucose was 205 and 210 and 206 and 240 in test [3] (Week 1, per mouse, before dosing 277-300, Figure 6F); 180 and 170 and 145 and 210 in test [3] (Week 2, per mouse, Figure 6F); 145 and 150 and 135 and 156 in test [3] (Week 3, per mouse, Figure 6F); 125 and 119 and 121 and 130 in test [3] (Week 4, per mouse, Figure 6F).
